Assay results reported in patent US8916599B2, “1H-benz imidazole-5-carboxamides as anti-inflammatory agents” (Orexo AB, priority 2008, dated 2014).

biological target: T1, recombinant human mPGES-1 (Homo sapiens, UniProt O14684); experiment: mPGES-1 inhibition test (microsomes, PGH2 substrate, HTRF detection of PGE2); type: biochemical; settings: inhibition of mPGES-1 at 1 μM (marked in cell)
T1 construct: made in house; host or cells: Rosetta E. coli (microsomal/membrane fraction)
T1 sequence (O14684 1-152): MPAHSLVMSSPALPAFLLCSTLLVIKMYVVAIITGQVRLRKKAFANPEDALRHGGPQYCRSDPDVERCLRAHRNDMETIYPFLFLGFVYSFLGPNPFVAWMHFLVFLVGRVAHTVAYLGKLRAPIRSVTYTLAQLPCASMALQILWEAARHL
Procedure: Microsomes from Rosetta E. coli bacteria expressing recombinant human mPGES-1 is dissolved in 0.1 M KPi pH 7.4 buffer containing 2.5 mM GSH. 50 μl of the enzyme is subsequently dispensed in a 384-well plate. 0.5 μl of the inhibitor dissolved in DMSO at is thereafter added to each well and incubated for 25 minutes at room temperature. Subsequently, 2 μl of PGH2 dissolved in an appropriate solvent is added to each well and after one minute the acidified stop solution containing FeCl2 is added. 4 μl of the total volume is transferred to a separate plate and diluted 750-fold in two separate steps before HTRF detection of PGE2.
The HTRf detection is performed by the use of a commercially available kit from CisBio essentially according to the manufacturer's protocol. Briefly, 10 μl of the diluted sample is transferred to a white 384-well plate. 5 μl of d2 and 5 μl Eu3+-Cryptate labeled anti-PGE2 is added to each well containing samples by the use of a Multidrop. The plate is covered with a plastic self-adhesive film, centrifuged at 1200 rpm for 1 minute and subsequently stored at +4° C. over night.
After over night incubation the fluorescence is measured by the use of an appropriate microplate reader. The fluorescence of europium cryptate, and d2 are measured using the following excitation and emission wavelength, europium cryptate: λmax^ex=307 nm, λmax^em=620 nm and d2: λmax^ex=620 nm, λmax^em=665 nm), respectively. The extent of the specific FRET is measured as a ratio of the emission intensity at 665 nm vs. that at 620 nm. A standard curve using synthetic PGE2 is used to quantify the amount of PGE2 in unknown samples.

First: O=C(Nc1ccc(Cl)c(F)c1)c1ccc2[nH]c(Nc3c(Cl)cccc3Cl)nc2c1 [Example 67, 2-(2,6-Dichloro-phenylamino)-1H-benzimidazole-5-carboxylic acid (4-chloro-3-fluoro-phenyl)-amide]
Second: O=C(Nc1ccc(F)c(Cl)c1)c1ccc2[nH]c(Nc3c(Cl)cccc3Cl)nc2c1 [Example 71, 2-(2,6-Dichloro-phenylamino)-1H-benzimidazole-5-carboxylic acid (3-chloro-4-fluoro-phenyl)-amide]
The inhibition at 1 µM of the first is higher: 100% for the first, 95% for the second.

O=C(Nc1ccc(Br)c(F)c1)c1ccc2[nH]c(Nc3c(Cl)cccc3Cl)nc2c1 [Example 68, 2-(2,6-Dichloro-phenylamino)-1H-benzimidazole-5-carboxylic acid (4-bromo-3-fluoro-phenyl)-amide] and O=C(Nc1ccc(F)c(Br)c1)c1ccc2[nH]c(Nc3c(Cl)cccc3Cl)nc2c1 [Example 70, 2-(2,6-Dichloro-phenylamino)-1H-benzimidazole-5-carboxylic acid (3-bromo-4-fluoro-phenyl)-amide] are the same in inhibition at 1 µM: 100% for the first, 100% for the second.

O=C(Nc1cccc(Br)c1)c1ccc2[nH]c(Nc3c(Cl)cccc3Cl)nc2c1 [Example 69, 2-(2,6-Dichloro-phenylamino)-1H-benzimidazole-5-carboxylic acid (3-bromo-phenyl)-amide] gave an inhibition at 1 µM of 100%.

same assay, conditions: inhibition of mPGES-1 at 10 μM

In the case of “2-(2-Chloro-6-fluorophenylamino-N-(4-isopropylcyclohexyl)-6-fluoro-1-methyl-1H-benzimidazole-5-carboxamide [Example 363]”, the “% inhib.” value is reported as 100%.

Compared with O=C(Nc1ccccc1)c1ccc2[nH]c(Nc3c(Cl)cccc3Cl)nc2c1 [Example 1, 2-(2,6-Dichloro-phenylamino)-1H-benzimidazole-5-carboxylic acid phenylamide], Cc1cccc(Cl)c1Nc1nc2cc(C(=O)Nc3ccccc3)ccc2[nH]1 [Example 12, 2-(2-Chloro-6-methyl-phenylamino)-1H-benzimidazole-5-carboxylic acid-phenylamide] is lower in inhibition at 10 µM: 100% for the first, 99% for the second.

Going from Cc1ccccc1NC(=O)c1ccc2[nH]c(Nc3c(Cl)cccc3Cl)nc2c1 [Example 3, 2-(2,6-Dichloro-phenylamino)-1H-benzimidazole-5-carboxylic acid o-tolylamide] to Cc1cccc(NC(=O)c2ccc3[nH]c(Nc4c(Cl)cccc4Cl)nc3c2)c1 [Example 4, 2-(2,6-Dichloro-phenylamino)-1H-benzimidazole-5-carboxylic acid m-tolylamide], the inhibition at 10 µM rises from 95% to 100%.

Cc1ccc(NC(=O)c2ccc3[nH]c(Nc4c(Cl)cccc4Cl)nc3c2)cc1 [Example 5, 2-(2,6-Dichloro-phenylamino)-1H-benzimidazole-5-carboxylic acid p-tolylamide] and O=C(Nc1ccc(Br)cc1)c1ccc2[nH]c(Nc3c(Cl)cccc3Cl)nc2c1 [Example 66, 2-(2,6-Dichloro-phenylamino)-1H-benzimidazole-5-carboxylic acid (4-bromo-phenyl)-amide] are the same in inhibition at 10 µM: 100% for the first, 100% for the second.

First: O=C(Nc1ccccc1)c1ccc2[nH]c(Nc3ccccc3C(F)(F)F)nc2c1 [Example 6, 2-(2-Trifluoromethyl-phenylamino)-1H-benzimidazole-5-carboxylic acid-phenylamide]
Second: O=C(Nc1ccccc1)c1ccc2[nH]c(Nc3ccccc3Cl)nc2c1 [Example 9, 2-(2-Chloro-phenylamino)-1H-benzimidazole-5-carboxylic acid-phenylamide]
The inhibition at 10 µM of the first is higher: 99% for the first, 93% for the second.

Going from O=C(Nc1ccccc1)c1ccc2[nH]c(Nc3cc(Cl)ccc3Cl)nc2c1 [Example 7, 2-(2,5-Dichloro-phenylamino)-1H-benzimidazole-5-carboxylic acid-phenylamide] to O=C(Nc1ccccc1)c1ccc2[nH]c(Nc3c(F)cccc3Cl)nc2c1 [Example 19, 2-(2-Chloro-6-fluoro-phenylamino)-1H-benzimidazole-5-carboxylic acid-phenylamide], the inhibition at 10 µM falls from 100% to 91%.

Compared with Cc1ccccc1Nc1nc2cc(C(=O)Nc3ccccc3)ccc2[nH]1 [Example 10, 2-(o-Tolyl-amino)-1H-benzimidazole-5-carboxylic acid-phenylamide], Cc1cccc(C)c1Nc1nc2cc(C(=O)Nc3ccccc3)ccc2[nH]1 [Example 13, 2-(2,6-Dimethyl-phenylamino)-1H-benzimidazole-5-carboxylic acid-phenylamide] is higher in inhibition at 10 µM: 98% for the first, 100% for the second.

Going from Cn1c(Nc2c(Cl)cccc2Cl)nc2cc(C(=O)Nc3ccccc3)ccc21 [Example 20, 2-(2,6-Dichloro-phenylamino)-1-methyl-1H-benzimidazole-5-carboxylic acid phenylamide] to N#Cc1cccc(NC(=O)c2ccc3[nH]c(Nc4c(Cl)cccc4Cl)nc3c2)c1 [Example 22, 2-(2,6-Dichloro-phenylamino)-1H-benzimidazole-5-carboxylic acid (3-cyano-phenyl)-amide], the inhibition at 10 µM rises from 97% to 100%.

Going from Cc1cc(C(=O)Nc2ccc(Br)cc2)cc2nc(Nc3c(Cl)cccc3Cl)[nH]c12 [Example 51, 2-(2,6-Dichloro-phenylamino)-7-methyl-1H-benzimidazole-5-carboxylic acid (4-bromo-phenyl)-amide] to Cc1cc(C(=O)Nc2ccc(Cl)c(F)c2)cc2nc(Nc3c(Cl)cccc3Cl)[nH]c12 [Example 52, 2-(2,6-Dichloro-phenylamino)-7-methyl-1H-benzimidazole-5-carboxylic acid (4-chloro-3-fluoro-phenyl)-amide], the inhibition at 10 µM rises from 89% to 100%.

Going from O=C(Nc1ccc(Br)cc1)c1cc2nc(Nc3c(Cl)cccc3Cl)[nH]c2cc1Cl [Example 53, 2-(2,6-Dichloro-phenylamino)-6-chloro-1H-benzimidazole-5-carboxylic acid (4-bromo-phenyl)-amide] to O=C(Nc1ccc(I)cc1)c1cc2nc(Nc3c(Cl)cccc3Cl)[nH]c2cc1Cl [Example 57, 2-(2,6-Dichloro-phenylamino)-6-chloro-1H-benzimidazol-5-carboxylic acid (4-iodo-phenyl)-amide], the inhibition at 10 µM falls from 100% to 96%.

Compared with O=C(Nc1ccc(Br)c(F)c1)c1cc2nc(Nc3c(Cl)cccc3Cl)[nH]c2cc1Cl [Example 54, 2-(2,6-Dichloro-phenylamino)-6-chloro-1H-benzimidazol-5-carboxylic acid (4-bromo-3-fluoro-phenyl)-amide], O=C(Nc1ccc(Cl)c(F)c1)c1cc2nc(Nc3c(Cl)cccc3Cl)[nH]c2cc1Cl [Example 55, 2-(2,6-Dichloro-phenylamino)-6-chloro-1H-benzimidazol-5-carboxylic acid (4-chloro-3-fluoro-phenyl)-amide] is lower in inhibition at 10 µM: 96% for the first, 93% for the second.

Compared with O=C(Nc1cccc(Cl)c1)c1cc2nc(Nc3c(Cl)cccc3Cl)[nH]c2cc1Cl [Example 56, 2-(2,6-Dichloro-phenylamino)-6-chloro-1H-benzimidazol-5-carboxylic acid (3-chloro-phenyl)-amide], O=C(NC1Cc2ccccc2C1)c1cc2nc(Nc3c(Cl)cccc3Cl)[nH]c2cc1Cl [Example 58, 2-(2,6-Dichloro-phenylamino)-6-chloro-1H-benzimidazol-5-carboxylic acid indan-2-yl-amide] is lower in inhibition at 10 µM: 100% for the first, 90% for the second.

Compared with CC1(C)CCC(NC(=O)c2ccc3[nH]c(Nc4c(Cl)cccc4Cl)nc3c2)CC1 [Example 64, 2-(2,6-Dichloro-phenylamino)-1H-benzimidazole-5-carboxylic acid (4,4-dimethyl-cyclohexyl)-amide], Cc1nc(NC(=O)c2ccc3[nH]c(Nc4c(Cl)cccc4Cl)nc3c2)sc1C [Example 77, 2-(2,6-Dichloro-phenylamino)-1H-benzimidazole-5-carboxylic acid (4,5-dimethyl-thiazol-2-yl)-amide] is lower in inhibition at 10 µM: 97% for the first, 96% for the second.

Compared with O=C(Nc1ccc(Cl)cn1)c1ccc2[nH]c(Nc3c(Cl)cccc3Cl)nc2c1 [Example 74, 2-(2,6-Dichloro-phenylamino)-1H-benzimidazole-5-carboxylic acid (5-chloro-pyridin-2-yl)-amide], O=C(Nc1cc(Cl)ccn1)c1ccc2[nH]c(Nc3c(Cl)cccc3Cl)nc2c1 [Example 75, 2-(2,6-Dichloro-phenylamino)-1H-benzimidazole-5-carboxylic acid (4-chloro-pyridin-2-yl)-amide] is lower in inhibition at 10 µM: 97% for the first, 95% for the second.

With Cc1nc(NC(=O)c2ccc3[nH]c(Nc4c(Cl)cccc4Cl)nc3c2)ccc1Br [Example 76, 2-(2,6-Dichloro-phenylamino)-1H-benzimidazole-5-carboxylic acid (5-bromo-6-methyl-pyridin-2-yl)-amide] the inhibition at 10 µM was 97%.
